Data from the supplement of paper PMC10307832.

Key:
Assay in all cases: relative viability (nuclei count vs DMSO), 5 days (fraction); higher = more cells survive
[1] = compound: C1CSC2=C(C(=O)N1)SC3=C2C=C(C=C3)O [kb NB 142-70] + O=C(CCCCCCC(=O)Nc1ccccc1)NO [Vorinostat] (partner 1 µM)
In short: (§1)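 After 5 days of treatment, lung cancer cells in 1536-well plates were fixed and stained in a single step (final 0.05% Triton X-100, 1% formaldehyde, 1 ug/ml Hoechst) and their nuclei counted on 4× images. Treatment had been applied by pin tool the day after seeding as one drug alone or as a fixed anchor-drug dose with five library-drug doses (not always all listed) in √10 steps. Relative viability is the nuclei count of treated wells divided by that of vehicle wells, and values are medians of duplicate plates.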

[2] = compound: NCC(=O)Nc1ccc(-n2nc(C(F)(F)F)cc2-c2ccc3c(ccc4ccccc43)c2)cc1 + O=C(c1cc(Cc2n[nH]c(=O)c3ccccc23)ccc1F)N1CCN(C(=O)C2CC2)CC1 [Olaparib] (partner 8 µM)
In short: as §1

[3] = compound: NCC(=O)Nc1ccc(-n2nc(C(F)(F)F)cc2-c2ccc3c(ccc4ccccc43)c2)cc1 + CCNC(=O)c1noc(-c2cc(C(C)C)c(O)cc2O)c1-c1ccc(CN2CCOCC2)cc1 [Luminespib] (partner 0.01 µM)
In short: as §1

[4] = compound: NCC(=O)Nc1ccc(-n2nc(C(F)(F)F)cc2-c2ccc3c(ccc4ccccc43)c2)cc1 + C[C@]1(O)C[C@@H](c2nc(-c3ccc4ccc(-c5ccccc5)nc4c3)c3c(N)nccn32)C1 [Linsitinib] (partner 1 µM)
In short: as §1

Cell Line	relative viability ([1]; first compound 0.1 µM)	relative viability ([1]; first compound 1 µM)	relative viability ([1]; first compound 3.162 µM)	relative viability ([2]; first compound 0.02 µM)	relative viability ([2]; first compound 0.06325 µM)	relative viability ([2]; first compound 0.2 µM)	relative viability ([2]; first compound 0.6325 µM)	relative viability ([2]; first compound 2 µM)	relative viability ([3]; first compound 0.02 µM)	relative viability ([3]; first compound 0.06325 µM)	relative viability ([3]; first compound 0.2 µM)	relative viability ([3]; first compound 0.6325 µM)	relative viability ([3]; first compound 2 µM)	relative viability ([4]; first compound 0.02 µM)	relative viability ([4]; first compound 0.06325 µM)	relative viability ([4]; first compound 0.2 µM)	relative viability ([4]; first compound 0.6325 µM)	relative viability ([4]; first compound 2 µM)
NCI-H1975	0.708	0.816	0.554	0.763	0.847	0.887	0.744	0.873	0.125	0.29	0.236	0.278	0.247	0.927	0.92	0.973	0.983	0.921
NCI-H1651	0.543	0.579	0.566	0.177	0.177	0.175	0.175	0.173	0.8	0.965	0.872	0.81	0.861	0.945	1.05	0.963	1.01	1.01
NCI-H441	0.89	0.844	0.644	0.546	0.58	0.52	0.493	0.598	0.334	0.391	0.347	0.296	0.397	0.634	0.486	0.509	0.657	0.668
LCLC-103H	0.856	0.873	0.877	0.685	0.793	0.787	0.765	0.752	0.932	0.919	1.03	0.925	0.895	1.16	0.997	1.12	1.11	0.978
